The values below come from PMC6994419, “UDP-N-acetyl-α-D-galactosamine:polypeptide N-acetylgalactosaminyltransferase from the snail Biomphalaria glabrata – structural reflections” (Glycoconjugate Journal, 2019).

The target of one experiment is T1, ΔppGalNAcT (Biomphalaria glabrata, UniProt S5S833).
T1 construct: catalytic part only: amino acids 1-26 and the lectin domain (477-600) removed; Sf9 insect cells, purified
The experiment can be described thus: GalNAc transfer to acceptor peptide, reversed-phase HPLC at […] nm. Format: biochemical. Particulars: 40 nmol UDP-GalNAc in 20 μl, 10 mM MnCl2, 50 mM MES pH 7.0, 37 °C, 90 min, acceptor peptide 20 μg.

The next experiment deals with T2, Bge-ppGalNAcT (Biomphalaria glabrata, UniProt S5S833).
T2 construct: without cytoplasmic tail and transmembrane domain (amino acids 1-26 removed); catalytic plus lectin domain
T2 sequence (S5S833 27-600): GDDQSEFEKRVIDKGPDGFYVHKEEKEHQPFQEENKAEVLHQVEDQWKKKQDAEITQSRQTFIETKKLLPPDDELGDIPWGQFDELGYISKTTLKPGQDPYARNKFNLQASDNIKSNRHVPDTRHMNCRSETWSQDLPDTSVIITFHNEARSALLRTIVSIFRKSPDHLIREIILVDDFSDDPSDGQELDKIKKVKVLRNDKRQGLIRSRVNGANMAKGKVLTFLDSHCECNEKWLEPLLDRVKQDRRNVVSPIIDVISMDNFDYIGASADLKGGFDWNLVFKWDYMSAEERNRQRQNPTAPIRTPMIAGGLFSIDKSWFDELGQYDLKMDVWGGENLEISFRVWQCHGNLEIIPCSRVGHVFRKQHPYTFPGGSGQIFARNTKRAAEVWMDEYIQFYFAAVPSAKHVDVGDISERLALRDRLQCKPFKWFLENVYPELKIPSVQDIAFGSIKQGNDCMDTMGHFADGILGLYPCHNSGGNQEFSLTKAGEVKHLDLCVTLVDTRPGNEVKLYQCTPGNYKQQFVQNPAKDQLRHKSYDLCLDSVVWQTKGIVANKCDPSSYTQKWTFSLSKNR
The description is as above. Particulars: 40 nmol UDP-GalNAc in 20 μl, 10 mM MnCl2, 50 mM MES pH 7.0, 37 °C, 90 min, acceptor peptide 20 μg. Format: biochemical.

T1 sequence (S5S833 27-476, stated change not applied): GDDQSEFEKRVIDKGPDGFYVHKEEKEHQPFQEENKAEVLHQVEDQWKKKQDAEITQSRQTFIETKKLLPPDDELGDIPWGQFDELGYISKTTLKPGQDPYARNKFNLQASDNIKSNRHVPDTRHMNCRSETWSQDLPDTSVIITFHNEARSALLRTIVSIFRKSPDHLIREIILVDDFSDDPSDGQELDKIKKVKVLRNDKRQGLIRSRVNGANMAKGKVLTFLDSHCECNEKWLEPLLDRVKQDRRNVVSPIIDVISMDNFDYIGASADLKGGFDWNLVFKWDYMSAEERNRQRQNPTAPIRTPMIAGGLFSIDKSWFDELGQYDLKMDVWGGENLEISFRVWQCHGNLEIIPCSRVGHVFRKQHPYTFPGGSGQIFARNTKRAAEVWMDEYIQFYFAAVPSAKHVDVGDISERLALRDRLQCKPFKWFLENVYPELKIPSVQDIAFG

With `O=c1ccn([C@@H]2O[C@H](COP(=O)(O)OP(=O)(O)O)[C@@H](O)[C@H]2O)c(=O)[nH]1` [UDP], the “activity at 0.05-0.75 mM UDP” value was “No significant differences between the enzyme expressed with lectin domain and the version without” at ΔppGalNAcT; “Only for UDP an inhibition effect was experimentally observed” on Bge-ppGalNAcT.
